From patent publication US10092534B2, “Composition for treating headaches” (BIOHIT OYJ, priority 2012, dated 2018)

Legend:
acetaldehyde from saliva = test: Elimination of acetaldehyde from saliva during smoking by a cysteine lozenge (FIG. 3); format: in vivo, human; settings: lozenge containing 5 mg
[1] = test system: acetaldehyde in the saliva; test: Salivary acetaldehyde during smoking while sucking L-cysteine tablets (gas chromatography of saliva samples); format: in vivo, human; settings: for average salivary acetaldehyde contents immediately after smoking: five smokers, one cigarette in 5 minutes, placebo 191.2±48.5 μM
Description: Five smokers (of the age of 29±2.8) participated in a study, in which […] were smoked (with cleaning periods in between). While smoking each cigarette (in 5 minutes time), the voluntaries sucked tablets blindfold, containing a placebo, 1.25 mg, 2.5 mg, 5 mg, 10 mg or 20 mg of L-cysteine. The acetaldehyde in the saliva samples was analysed by gas chromatography after 0, 5, 10, 20 minutes from starting to smoke.

Row | SMILES | elimination of acetaldehyde from saliva during smoking (acetaldehyde from saliva) | average salivary acetaldehyde contents immediately after smoking ([1]; 5 mg L-cysteine sucking tablet) [µM] | inactivation of acetaldehyde in the saliva during smoking ([1]; 5 mg of L-cysteine delivered with a melting tablet) | average salivary acetaldehyde contents immediately after smoking ([1]; 10 mg L-cysteine sucking tablet) [µM] | average salivary acetaldehyde contents immediately after smoking ([1]; 20 mg L-cysteine sucking tablet) [µM] | reduction of the amount of acetaldehyde compared with the placebo ([1]; L-cysteine tablet of 1.25 mg, saliva, during smoking) | removal of acetaldehyde originating from tobacco from the saliva ([1]; L-cysteine tablets 5 mg, 10 and 20 mg, during smoking, FIG. 1)
1 | N[C@H](CS)C(=O)O [D-cysteine] | totally eliminates acetaldehyde |  |  |  |  |  | 
2 | N[C@@H](CS)C(=O)O [L-cysteine] | totally eliminates acetaldehyde | 0 | completely inactivated | 0 | 0 | about two thirds | removed from the saliva all of the acetaldehyde
